The values that follow come from patent US11578300B2, “Test apparatus” (Hitachi High-Tech Corporation, priority 2014, dated 2023).

Values after ≈ are worked out from the molar mass of the structure shown.

Common to all, as to type: cell-based
Assay [1] deals with E. coli (ATCC25922). As to the kind of experiment: susceptibility test with respect to ampicillin by microscopic observation (bacteriological test apparatus). As for the experimental part: After the bacterial suspension is introduced into the culture plate 18, the bacterial suspension is in a state of being mixed with the culture liquid which is included in each of the wells, and the temperature controller 16 is set to a temperature of approximately 35° C. Culture is performed by performing incubation such that the temperature of each of the wells in the culture plate 18 is in the vicinity of the set temperature. Then, while performing the incubation, the bacteria included in each of the wells are monitored through the microscopic observation optical system. The microscopic observation (monitoring) may be performed for a set period of time from the start of the incubation till the end thereof by continuously monitoring the state of bacterial growth. Otherwise, a suitable time may be set and monitoring is performed every set time thereof so as to be able to be compared with the monitored result at the time of starting the incubation. In addition, similar to the bacteriological test apparatus in the related art, the turbidity of each of the wells may be measured through the turbidity measurement optical system while incubating the culture plate 18. The measured result may be compared with the monitored result of the microscopic observation optical system. FIGS. 16A to 18C are diagrams illustrating results of a susceptibility test with respect to ampicillin of E. coli (ATCC25922) performed by using the bacteriological test apparatus of the present invention. FIGS. 16A to 18C are images obtained by culturing the E. coli in Mueller-Hinton culture mediums respectively containing ampicillin having the concentrations of 0 μg/mL, 2 μg/mL, and 16 μg/mL, performing image processing of a line extracting filter and the like onto microscopic images respectively captured after (a) 0 hours, (b) 3 hours, and (c) 24 hours from the start of culture, and performing binarization. The target objects appearing black in FIGS. 16A to 18C are the E. coli. […] FIG. 19 is a graph obtained by calculating the areas of the E. coli in the images of FIGS. 16A to 18C and plotting the areas thereof periodically. […] In this manner, it was possible to obtain the MIC with respect to the ampicillin of the used E. coli based on the graph achieved by monitoring the change in the areas of the bacteria in the images. It could be confirmed that the antimicrobial susceptibility test which requires overnight culture in the related art could be carried out in a short time by using the bacteriological test apparatus of the present invention.

In assay [2] the test system is E coli (ATCC35218). As to the kind of experiment: susceptibility test of E coli treated with cefazolin by microscopic observation (bacteriological test apparatus). The following applies: for growth of the E coli in images / bacterial number in a microscopic image: after three hours; for bacterial number in a microscopic image: FIG. 22A; for average value of the areas per one bacterium: FIG. 22C. As for the experimental part:
After the bacterial suspension is introduced into the culture plate 18, the bacterial suspension is in a state of being mixed with the culture liquid which is included in each of the wells, and the temperature controller 16 is set to a temperature of approximately 35° C. Culture is performed by performing incubation such that the temperature of each of the wells in the culture plate 18 is in the vicinity of the set temperature. Then, while performing the incubation, the bacteria included in each of the wells are monitored through the microscopic observation optical system. The microscopic observation (monitoring) may be performed for a set period of time from the start of the incubation till the end thereof by continuously monitoring the state of bacterial growth. Otherwise, a suitable time may be set and monitoring is performed every set time thereof so as to be able to be compared with the monitored result at the time of starting the incubation. In addition, similar to the bacteriological test apparatus in the related art, the turbidity of each of the wells may be measured through the turbidity measurement optical system while incubating the culture plate 18. The measured result may be compared with the monitored result of the microscopic observation optical system. FIGS. 20A-20D and 21A-21D are diagrams illustrating results of a susceptibility test of E coli (ATCC35218) treated with cefazolin performed by using the bacteriological test apparatus of the present invention. FIGS. 20A to 20D are microscopic images which are obtained by culturing the E. coli in Mueller-Hinton culture mediums respectively containing cefazolin having concentrations of 0 μg/mL, 0.5 μg/mL, 1 μg/mL, and 2 μg/mL, and captured after three hours from the start of culture. The target objects vaguely appearing in the images are the bacteria. FIGS. 21A to 21D are images obtained by respectively performing image processing onto the images of FIGS. […], performing edge detection, and performing binarization thereafter. The target objects appearing black in FIGS. 21A-21D are the E. coli. […] FIGS. 22A-22F are graphs obtained by extracting the feature values of the bacteria from the image of FIGS. 20A-20D. FIG. 22A is a graph illustrating the bacterial number in a microscopic image. […] FIG. 22B is a graph illustrating the areas of the bacteria in the microscopic image. FIG. 22C is a graph illustrating the average values of the areas per one bacterium obtained based on FIGS. 22A and 22B. […] As it also could be confirmed in FIGS. 21A-21D, the facts thereof indicate that the bacteria are elongated due to effect of cefazolin. FIGS. 22D to 22F are graphs respectively showing the perimeter length, the circularity, and the solidity (an index showing how the shape is close to a circle) per one bacterium. As the results of the elongated bacteria, it could be confirmed that the perimeter length increased in FIG. 22D, the circularity defined through […] was lowered in FIG. 22E, and the solidity defined through the area/the projection area is lowered in FIG. 22F.

In assay [3] the test system is Enterococcus faecalis (ATCC29212). As to the kind of experiment: susceptibility test with respect to levofloxacin by microscopic observation (bacteriological test apparatus). To be noted: Mueller-Hinton culture medium, from areas of bacteria in images over time, read-out: minimum inhibitory concentration (MIC). As for the experimental part: After the bacterial suspension is introduced into the culture plate 18, the bacterial suspension is in a state of being mixed with the culture liquid which is included in each of the wells, and the temperature controller 16 is set to a temperature of approximately 35° C. Culture is performed by performing incubation such that the temperature of each of the wells in the culture plate 18 is in the vicinity of the set temperature. Then, while performing the incubation, the bacteria included in each of the wells are monitored through the microscopic observation optical system. The microscopic observation (monitoring) may be performed for a set period of time from the start of the incubation till the end thereof by continuously monitoring the state of bacterial growth. Otherwise, a suitable time may be set and monitoring is performed every set time thereof so as to be able to be compared with the monitored result at the time of starting the incubation. In addition, similar to the bacteriological test apparatus in the related art, the turbidity of each of the wells may be measured through the turbidity measurement optical system while incubating the culture plate 18. The measured result may be compared with the monitored result of the microscopic observation optical system. FIGS. 10A to 13D are diagrams illustrating the results obtained by applying the present invention. […]

With `CC1(C)S[C@@H]2[C@H](NC(=O)[C@H](N)c3ccccc3)C(=O)N2[C@H]1C(=O)O` [ampicillin], the “areas of the E. coli in the images” value in assay [1] (ampicillin 2 μg/mL, FIG. 19 graph (ii)) was “increased with the lapse of time”; in assay [1] (ampicillin 16 μg/mL, FIG. 19 graph (iii)) it was “seldom increased”. For the same molecule, the “growth of the E. coli in images” value in assay [1] (ampicillin 2 μg/mL, after 24 hours, FIG. 17C) is on record as “grew after 24 hours”; in assay [1] (ampicillin 16 μg/mL, FIGS. 18A-18C) it was “did not grow without being elongated”. Moreover, the “shape of the E. coli in images” value in assay [1] (ampicillin 2 μg/mL, after three hours, FIG. 17B) was “elongated states”.

As for `Cc1nnc(SCC2=C(C(=O)O)N3C(=O)[C@@H](NC(=O)Cn4cnnn4)[C@H]3SC2)s1` [cefazolin], the “growth of the E coli in images” value in assay [2] (cefazolin 0.5 μg/mL, FIG. 21B) was “grew after three hours”; in assay [2] (cefazolin 1 μg/mL, FIG. 21C), “did not quite grow after three hours and was elongated”; in assay [2] (cefazolin 2 μg/mL, FIG. 21D), “did not quite grow after three hours and was elongated”. Besides, the “bacterial number in a microscopic image” value in assay [2] (cefazolin 0.5 μg/mL) was “increased through growth”; in assay [2] (cefazolin 1 μg/mL) it was “did not quite grow”; in assay [2] (cefazolin 2 μg/mL) it was “did not quite grow”. Also, the “average value of the areas per one bacterium” value is listed as “the area increased” in assay [2] (cefazolin 0.5 μg/mL, compared to no antibacterial agent); “further increased” in assay [2] (cefazolin 1 μg/mL); “further increased” in assay [2] (cefazolin 2 μg/mL). Moreover, the “perimeter length per one bacterium” value in assay [2] (elongated bacteria, concentration not given, FIG. 22D) is reported as “increased”. Besides, the “circularity per one bacterium” value in assay [2] (elongated bacteria, concentration not given, FIG. 22E) is “lowered”. Further, the “solidity per one bacterium” value in assay [2] (elongated bacteria, concentration not given, FIG. 22F) is given as “lowered”.

For the molecule `C[C@H]1COc2c(N3CCN(C)CC3)c(F)cc3c(=O)c(C(=O)O)cn1c23` [levofloxacin], the MIC in assay [3] came out at 1 mg/L (≈ 2.77 µM).
